The source of these data is patent US8188102B2, “Amide derivative for inhibiting the growth of cancer cells” (Hanmi Holdings Co., Ltd., priority 2007, dated 2012).

Assay [1] deals with H1975 lung cancer cell line. Description: Cancer cell growth inhibition, H1975 (celltiter). The settings on record: Homo sapiens, NCI-H1975, 48 h, read-out: IC50 (nM) H1975.
Assay [2] relates to SW-620 colon/rectal cancer cell line. Description: Cancer cell growth inhibition, SW-620 (SRB). The settings on record: Homo sapiens, SW-620, 72 h, read-out: IC50 (nM) SW-620.
Another assay deals with T1, EGFR (Homo sapiens, UniProt P00533).
T1 construct: A skin cancer cell line, A431 (ATCC: CRL-1555), was used; endogenous in cells; host or cells: A431 (ATCC: CRL-1555)
Description: Prolongation study in A431 cells (EGFR phosphorylation inhibition). The assay is classed as cell-based. The settings on record: A-431, 1 μM for 4 hrs, then washed, EGF 100 ng/ml. On the procedure:
A skin cancer cell line, A431 (ATCC: CRL-1555), was used to test the degrees of the inventive compounds in inhibiting EGFR's phosphorylation and the prolongation of ability to inhibit it thereof.
The cell line was incubated in a culture flask at 37° C. under 95% air and 5% CO2 using a culture medium containing DMEM, 10% FBS and 1% PS. When more than 90% of the total volume of the culture flask became filled with cells, the cultured cell solution was subject to secondary incubation and was poured to each well of a 6-well plate to the extent of 500,000 cells/well. After 24 hrs, the cells were separated from the solution, washed with PBS, and incubated in a culture medium containing DMEM, 0.1% FBS and 1% PS for 16 hrs. The compounds obtained in Examples 1, 17, 19 and 36, and Tarceva as EGFR phosphorylation inhibitors were each added to the cell-containing well to a concentration of 1 μM. After 4 hrs, the cells were separated from the solution, washed 4 times with PBS after every 0, 2, 4 and 8 hrs, and incubated in a culture medium containing DMEM, 0.1% FBS and 1% PS. […] Just before the completion of the reaction, the cultured cell solution was treated with a 100 ng/ml concentration of EGF (Sigma, Cat No. E9644) for 5 mins to induce the activation of EGFR. After the completion of the reaction, the well plate holding the cultured cells was stored at −70° C. In control groups, the replacement of the medium was performed instead of the addition of the EGFR phosphorylation inhibitor, wherein the induction of EGFR activation using EGF was made only in a positive control group and not made in a negative control group.
For Western blot and enzyme immune measuring (ELISA) methods, the well plate stored at −70° C. was allowed to melt to room temperature, and then protein was extracted from the cells in the well plate using a protein extract buffer. The extraction of the protein was performed as follows: 250 μl of the protein extract buffer (Phosphosafe extraction reagent, Calbiochem, Cat No. 71296-3) comprising protease inhibitor cocktail was added to each cell-containing well, which was stirred at room temperature for 5 mins. The cells were collected using a cell scraper and put in an 1.5 ml tube, which was centrifuged at a speed of 16,000×g for 5 mins. The upper layer thus obtained was separated, of which the protein content was determined by a protein assay kit (Bio-rad, Cat No. 500-0116). The protein extracted was diluted with PBS to a concentration of 0.8 mg/ml.
A human EGFR (py1173) immunoassay kit (Biosource, Cat No. KHR9071) was used in the enzyme immune measuring method. 100 μl of the sample which was diluted by 4 folds with a standard dilution buffer in a kit was added to a strip well, which was incubated at a 4° C. refrigerator overnight. The cultured cells was separated therefrom and washed 4 times with 200 μl of a washing buffer. 100 μl of the resulting primary antibody (anti-human EGFR [pY1173]) was put to each strip well, incubated at 37° C. for 1 hr, and washed 4 times with 200 μl of a washing buffer. The resulting secondary antibody (anti-rabbit IgG-HRP) was diluted by 100 folds with an HRP dilution buffer in a kit. 100 μl of the dilute was put to each strip well, incubated at 37° C. for 30 mins, and washed 4 times with 200 μl of the washing buffer. 100 μl of an HRP substrate in a kit was put to each strip well and incubated in a darkroom for 10 to 30 mins. 100 μl of a reaction stop solution was added thereto to terminate the reaction, and then, the absorbance at 450 nm was observed.
Electrophoresis and Western blot methods were conducted based on the conventional methods in the following: An LDS buffer was added to each sample, which was allowed to boil at 70° C. for 10 mins. 10 μl of the resulting solution was loaded to a 12-well gel (Nupage 4˜12% Bis-tris gel, Invitrogen), followed by 120 volt-electrophoresis in a buffer (MOPS electrophoresis buffer, Invitrogen, Cat No. NP0006-1) for 2 hrs. […]

The subject of assay [3] is A431 skin cancer cell line. Description: Cancer cell growth inhibition, A431 (SRB). The conditions noted are these: Homo sapiens, A-431, 72 h, read-out: ID50 (nM) A431.
In assay [4] the test system is SK-Br3 breast cancer cell line. Kind of assay: Cancer cell growth inhibition, SK-Br3 (SRB). The conditions noted are these: Homo sapiens, SK-BR-3, 72 h, read-out: ID50 (nM) SK-Br3.
Another assay deals with EGFR T790M kinase (Homo sapiens, UniProt P00533, T790M). Description: Inhibition of EGFR mutant enzyme (T790M).
For assay [5], the target named is EGFR (EGFR type 1 kinase, Upstate) (Homo sapiens, UniProt P00533). Kind of assay: Inhibition of EGFR enzyme (fluorescence polarization kinase assay). (In fluorescence polarisation assays a small probe gives low polarisation when free and higher when bound to something large.)
Description: 10 μl of an EGFR (EGFR type 1 kinase, Upstate, 10 ng/μl) was added to each well of a 96-well plate. […] The calculation and analysis of IC50 were carried out by using Microsoft Excel.
The mark [6] stands for this setting: 0 hr after washing, read-out: EGFR phosphorylation inhibition in A431 cell line (%) 0 hr Avg.
Setting [7] is: 8 hrs after washing, read-out: EGFR phosphorylation inhibition in A431 cell line (%) 8 hrs Avg.
The mark [8] stands for this setting: 24 hrs after washing, read-out: EGFR phosphorylation inhibition in A431 cell line (%) 24 hrs Avg.
Setting [9] is: 48 hrs after washing, read-out: EGFR phosphorylation inhibition in A431 cell line (%) 48 hrs Avg.
Where [10] appears, read: read-out: IC50 (nM) T790M, EGFR T790M kinase.
Setting [11] is: read-out: IC50 (nM) EGFR, EGFR type 1 kinase, ATP 50 μM.

Each structure is given as a SMILES string. Like-named read-outs stand apart in the source and are kept apart here.

Chain of EGFR (EGFR type 1 kinase, Upstate) (P00533 25-1210): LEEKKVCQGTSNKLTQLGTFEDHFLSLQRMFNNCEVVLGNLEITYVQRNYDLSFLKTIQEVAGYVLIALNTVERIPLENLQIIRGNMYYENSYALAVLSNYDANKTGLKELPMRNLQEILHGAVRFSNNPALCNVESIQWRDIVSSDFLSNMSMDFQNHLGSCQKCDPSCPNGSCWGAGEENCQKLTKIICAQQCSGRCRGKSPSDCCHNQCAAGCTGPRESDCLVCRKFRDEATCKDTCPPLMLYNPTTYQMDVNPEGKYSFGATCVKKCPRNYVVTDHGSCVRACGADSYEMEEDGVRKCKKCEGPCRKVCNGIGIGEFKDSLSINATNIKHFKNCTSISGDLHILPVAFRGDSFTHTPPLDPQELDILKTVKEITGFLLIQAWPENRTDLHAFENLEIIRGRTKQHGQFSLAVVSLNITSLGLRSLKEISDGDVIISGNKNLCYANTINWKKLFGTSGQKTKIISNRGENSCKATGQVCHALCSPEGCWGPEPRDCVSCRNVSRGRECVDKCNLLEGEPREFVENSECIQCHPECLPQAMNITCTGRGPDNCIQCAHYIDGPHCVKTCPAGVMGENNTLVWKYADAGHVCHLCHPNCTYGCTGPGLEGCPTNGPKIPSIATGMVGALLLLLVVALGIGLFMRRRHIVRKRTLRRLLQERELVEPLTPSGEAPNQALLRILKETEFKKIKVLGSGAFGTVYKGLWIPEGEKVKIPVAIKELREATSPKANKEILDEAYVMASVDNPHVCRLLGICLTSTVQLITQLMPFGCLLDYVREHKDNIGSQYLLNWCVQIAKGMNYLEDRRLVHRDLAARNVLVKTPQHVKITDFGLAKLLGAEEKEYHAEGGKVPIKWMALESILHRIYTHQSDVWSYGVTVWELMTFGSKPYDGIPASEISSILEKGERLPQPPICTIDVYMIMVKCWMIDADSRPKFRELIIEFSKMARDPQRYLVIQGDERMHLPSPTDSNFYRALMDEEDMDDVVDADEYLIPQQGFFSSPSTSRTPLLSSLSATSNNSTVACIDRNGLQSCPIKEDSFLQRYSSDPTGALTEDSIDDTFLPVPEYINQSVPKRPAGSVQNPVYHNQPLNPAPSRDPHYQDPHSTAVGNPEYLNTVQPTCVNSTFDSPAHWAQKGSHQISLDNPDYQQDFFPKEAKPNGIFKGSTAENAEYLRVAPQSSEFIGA
T1 sequence (P00533 25-1210): as above
Chain of EGFR T790M kinase (P00533 25-1210 T790M): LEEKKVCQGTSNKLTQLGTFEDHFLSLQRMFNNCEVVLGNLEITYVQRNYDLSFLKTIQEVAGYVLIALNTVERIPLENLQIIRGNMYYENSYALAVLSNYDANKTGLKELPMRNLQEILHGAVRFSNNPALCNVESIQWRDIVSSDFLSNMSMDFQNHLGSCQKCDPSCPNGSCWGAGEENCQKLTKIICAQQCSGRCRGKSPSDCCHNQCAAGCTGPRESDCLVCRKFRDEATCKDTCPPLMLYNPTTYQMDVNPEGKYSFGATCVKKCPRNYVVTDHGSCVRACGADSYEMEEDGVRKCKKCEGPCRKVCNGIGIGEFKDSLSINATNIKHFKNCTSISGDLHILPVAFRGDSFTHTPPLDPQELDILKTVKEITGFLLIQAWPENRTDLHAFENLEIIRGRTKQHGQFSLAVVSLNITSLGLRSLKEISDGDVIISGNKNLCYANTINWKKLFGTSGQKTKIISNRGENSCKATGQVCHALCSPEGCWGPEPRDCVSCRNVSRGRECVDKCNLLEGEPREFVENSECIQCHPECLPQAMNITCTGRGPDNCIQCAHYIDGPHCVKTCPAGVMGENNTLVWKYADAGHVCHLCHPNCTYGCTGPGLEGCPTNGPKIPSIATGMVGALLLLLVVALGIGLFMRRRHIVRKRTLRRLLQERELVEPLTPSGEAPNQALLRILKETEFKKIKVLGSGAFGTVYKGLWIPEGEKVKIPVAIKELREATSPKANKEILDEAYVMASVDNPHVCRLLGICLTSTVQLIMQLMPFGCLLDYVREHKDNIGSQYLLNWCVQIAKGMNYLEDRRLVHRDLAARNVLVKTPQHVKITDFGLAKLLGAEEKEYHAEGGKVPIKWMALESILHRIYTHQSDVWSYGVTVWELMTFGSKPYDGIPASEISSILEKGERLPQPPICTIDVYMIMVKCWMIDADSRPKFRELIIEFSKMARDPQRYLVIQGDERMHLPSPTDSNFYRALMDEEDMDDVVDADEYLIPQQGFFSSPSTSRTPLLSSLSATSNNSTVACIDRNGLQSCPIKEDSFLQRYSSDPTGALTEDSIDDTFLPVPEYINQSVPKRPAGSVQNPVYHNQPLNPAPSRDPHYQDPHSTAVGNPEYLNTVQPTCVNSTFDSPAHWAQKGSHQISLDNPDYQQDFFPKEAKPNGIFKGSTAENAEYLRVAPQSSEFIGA

As to `C=CC(=O)N1CC[C@H](Oc2cc3c(Nc4ccc(F)c(Cl)c4F)ncnc3cc2OC)C1` [Example 1, 1-((3S)-3-(4-(3-chloro-2,4-difluorophenylamino)-7-methoxyquinazolin-6-yloxy)pyrrolidin-1-yl)prop-2-en-1-one], the IC50 in assay [1] is 80 nM; in assay [2], greater than 5000 nM; in assay [3], 4 nM; in assay [4] it was 8 nM. Moreover, the inhibition (usually the share of the control response that was lost under treatment) at 1 µM on EGFR (setting [6]) is 71%; on EGFR (setting [7]), 71%; at EGFR (setting [8]), 73%; at EGFR (setting [9]) it was 42%.
Take `C=CC(=O)N1CC[C@H](Oc2cc3c(N[C@H](C)c4ccccc4)ncnc3cc2OC)C1` [Example 11]: the IC50 on EGFR T790M kinase (setting [10]) worked out at 27 nM; in assay [1] it was 167 nM; in assay [5] (setting [11]) it was 12 nM; in assay [3], 8 nM; in assay [4] it was 13 nM.
The corresponding values for `C=CC(=O)N1CC[C@H](Oc2ccc3ncnc(Nc4ccc(F)c(Cl)c4F)c3c2)C1` [Example 15, 1-((3S)-3-(4-(3-chloro-2,4-difluorophenylamino)quinazolin-6-yloxy)pyrrolidin-1-yl)pro-2-pen-1-one] are 54 nM, 413 nM, 9 nM, 5 nM and 25 nM.
The corresponding values for `C=CC(=O)N1CC(Oc2cc3c(N[C@H](C)c4ccccc4)ncnc3cc2OC)C1` [Example 22, (R)-1-(3-(7-methoxy-4-(1-phenylethylamino)quinazolin-6-yloxy)azetidin-1-yl)pro-2-pen-1-one] are 15 nM, 156 nM, 6 nM, 7 nM and 1 nM.
As to `C=CC(=O)N1CCC(Oc2cc3c(Nc4ccc(Cl)c(Cl)c4F)ncnc3cc2OC)CC1` [Example 36, 1-(4-(4-(3,4-dichloro-2-fluorophenylamino)-7-methoxyquinazolin-6-yloxy)piperidin-1-yl)pro-2-pen-1-one], the IC50 in assay [2] is greater than 5000 nM; in assay [4], 0.3 nM. The inhibition at 1 µM at EGFR (setting [6]) worked out at 90%; at EGFR (setting [7]), 89%; at EGFR (setting [8]) it was 81%; on EGFR (setting [9]), 41%; at EGFR (72 hrs after washing, read-out: EGFR phosphorylation inhibition in A431 cell line (%) 72 hrs Avg.), 44%.
`C=CC(=O)N1CCC(Oc2ccc3ncnc(Nc4ccc(F)c(Cl)c4F)c3c2)CC1` [Example 71, 1-(4-(4-(3-chloro-2,4-difluorophenylamino)quinazolin-6-yloxy)piperidin-1-yl)pro-2-pen-1-one]: the IC50 against EGFR T790M kinase turned out to be 24 nM; in assay [1], 70 nM; in assay [5] it was 2.7 nM; in assay [3], 8 nM; in assay [4] it was 5 nM.
On to `C=C(CN1CCOCC1)C(=O)N1CC(Oc2cc3c(Nc4ccc(F)c(Cl)c4F)ncnc3cc2OC)C1` [Example 105, 1-(3-(4-(3-chloro-2,4-difluorophenylamino)-7-methoxyquinazolin-6-yloxy)azetidin-1-yl)-2-(morpholinomethyl)prop-2-en-1-one], for which the IC50 is 4 nM on EGFR T790M kinase (setting [10]); 8 nM in assay [1]; greater than 5000 nM in assay [2]; 1.5 nM in assay [3]; 0.5 nM in assay [4].
The corresponding values for `C=CC(=O)N1CC[C@H](Oc2cc3c(Nc4ccc(F)c(Cl)c4F)ncnc3cc2OC)C[C@H]1C(=O)NCCO` [Example 126, (2S,4S)-1-acryloyl-4-(4-(3-chloro-2,4-difluorophenylamino)-7-methoxyquinazolin-6-yloxy)-N-(2-hydroxyethyl)piperidin-2-carboxamide] are 1.8 nM, 39 nM, greater than 5000 nM, 5.4 nM and 0.9 nM.
In the same order, the values of `C=CC(=O)N1CC[C@H](Oc2cc3c(Nc4ccc(F)c(Cl)c4F)ncnc3cc2OC)C[C@H]1C(=O)NCCOC` [Example 127, (2S,4S)-1-acryloyl-4-(4-(3-chloro-2,4-difluorophenylamino)-7-methoxyquinazolin-6-yloxy)-N-(2-methoxyethyl)piperidin-2-carboxamide] are 3.8 nM, 11 nM, greater than 5000 nM, 3.4 nM and 2.3 nM.
As for `C=CC(=O)N1CC[C@H](Oc2cc3c(Nc4ccc(F)c(Cl)c4F)ncnc3cc2OC)C[C@H]1C(=O)NCCSC` [Example 128, (2S,4S)-1-acryloyl-4-(4-(3-chloro-2,4-difluorophenylamino)-7-methoxyquinazolin-6-yloxy)-N-(2-(methylthio)ethyl)piperidin-2-carboxamide], the IC50 was 1.4 nM at EGFR T790M kinase (setting [10]); 5 nM in assay [1]; greater than 5000 nM in assay [2]; 2.4 nM in assay [3]; 5 nM in assay [4].
Take `C=CC(=O)N1CC[C@H](Oc2cc3c(Nc4ccc(F)c(Cl)c4F)ncnc3cc2OC)C[C@H]1C(=O)NCCN(C)C` [Example 130, (2S,4S)-1-acryloyl-4-(4-(3-chloro-2,4-difluorophenylamino)-7-methoxyquinazolin-6-yloxy)-N-(2-(dimethylamino)ethyl)piperidin-2-carboxamide]: the IC50 at EGFR T790M kinase (setting [10]) was 6.6 nM; in assay [1], 30 nM; in assay [2], greater than 5000 nM; in assay [3], 5.7 nM; in assay [4], 0.9 nM.
In the same order, the values of `C=CC(=O)N1CC[C@@H](Oc2cc3c(Nc4ccc(F)c(Cl)c4F)ncnc3cc2OC)C[C@@H]1C(=O)NC` [Example 136, (2R,4R)-1-acryloyl-4-(4-(3-chloro-2,4-difluorophenylamino)-7-methoxyquinazolin-6-yloxy)-N-methylpiperidin-2-carboxamide] are 0.9 nM, 2.6 nM, greater than 5000 nM, 2.9 nM and 0.2 nM.
